Our source for the T/C values is PubChem BioAssay AID330 (DTP/NCI, 2004).

The assay has as its system P388 leukemia ip, CD2F1 mice, survival T/C. Kind of assay: NCI In Vivo Anticancer Drug Screen. Data for tumor model P388 Leukemia (intraperitoneal) in CD2F1 (CDF1) mice. Particulars: endpoint: median survival time, higher = longer survival. Put shortly: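 Mice carrying the transplanted tumor received test compound or vehicle. Survival was recorded in each group, and the value is the treated-group measurement divided by that of the vehicle-treated control group.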

Where [1] appears, read: dose: 50.0 mg/kg/injection, schedule: Q01DX009 (ip), vehicle: saline.
Setting [2] is: dose: 100.0 mg/kg/injection, schedule: Q04DX002 (ip), vehicle: saline with Tween-80.
[3] abbreviates: dose: 200.0 mg/kg/injection, schedule: Q04DX002 (ip), vehicle: saline with Tween-80.
The mark [4] stands for this setting: dose: 400.0 mg/kg/injection, schedule: Q04DX002 (ip), vehicle: saline with Tween-80.
[5] abbreviates: dose: 50.0 mg/kg/injection, schedule: Q01DX005 (ip), vehicle: saline with Tween-80.
Setting [6] is: dose: 100.0 mg/kg/injection, schedule: Q01DX005 (ip), vehicle: saline with Tween-80.
Where [7] appears, read: dose: 200.0 mg/kg/injection, schedule: Q01DX005 (ip), vehicle: saline with Tween-80.
The mark [8] stands for this setting: dose: 60.0 mg/kg/injection, schedule: Q01DX005 (ip), vehicle: saline with Tween-80.
Where [9] appears, read: dose: 120.0 mg/kg/injection, schedule: Q01DX005 (ip), vehicle: saline with Tween-80.
[10] abbreviates: dose: 240.0 mg/kg/injection, schedule: Q01DX005 (ip), vehicle: saline with Tween-80.
Where [11] appears, read: dose: 50.0 mg/kg/injection, schedule: Q01DX005 (ip), vehicle: Klucel (hydroxypropylcellulose) (HPC).
The mark [12] stands for this setting: dose: 25.0 mg/kg/injection, schedule: Q01DX009 (ip), vehicle: Klucel (hydroxypropylcellulose) (HPC).
Setting [13] is: dose: 50.0 mg/kg/injection, schedule: Q01DX009 (ip), vehicle: Klucel (hydroxypropylcellulose) (HPC).
Where [14] appears, read: dose: 100.0 mg/kg/injection, schedule: Q01DX009 (ip), vehicle: Klucel (hydroxypropylcellulose) (HPC).
Setting [15] is: dose: 200.0 mg/kg/injection, schedule: Q01DX009 (ip), vehicle: Klucel (hydroxypropylcellulose) (HPC).
Setting [16] is: dose: 200.0 mg/kg/injection, schedule: Q01DX005 (ip), vehicle: Klucel (hydroxypropylcellulose) (HPC).

Values joined by “and” are separate entries in the source; they are usually repeats but may differ in a detail not shown here. Equal entries are not always repeated. Inconclusive results and toxic doses are left out.

For the molecule `Fc1cccc(NC(=S)SCc2ccc(Cl)cc2)c1`, the T/C (dose: 25.0 mg/kg/injection, schedule: Q01DX009 (ip), vehicle: saline) was 102 % of control; the T/C under setting [1] was 105 % of control; the T/C (dose: 100.0 mg/kg/injection, schedule: Q01DX009 (ip), vehicle: saline) was 105 % of control; the T/C (dose: 100.0 mg/kg/injection, schedule: Q01DX009 (ip), vehicle: suspension in saline) was 103 % of control.

In the case of `Cc1ccc(N=Nc2c(O)n(-c3ccc(C)cc3)c(=S)n(-c3ccc(Br)cc3)c2=O)cc1`, the T/C is, setting by setting: under setting [2], 99 % of control; under setting [3], 102 % of control; under setting [4], 105 % of control.

Turning to `C=C(C)C12OC3(c4ccccc4)OC1C1C4OC4(CO)C(O)C4(O)C(=O)C(C)=CC4C1(O3)C(C)C2OC(=O)c1ccccc1` (stereo not given), the T/C is 91 % of control (dose: 0.1 mg/kg/injection, schedule: Q01DX009 (ip), vehicle: saline); 100 % of control (dose: 0.2 mg/kg/injection, schedule: Q01DX009 (ip), vehicle: saline); 90 % of control (dose: 0.4 mg/kg/injection, schedule: Q01DX009 (ip), vehicle: saline); 96 % of control (dose: 0.8 mg/kg/injection, schedule: Q01DX009 (ip), vehicle: saline).

On to `CCN(CC)C1CS(=O)(=O)OC(c2ccccc2)=C1C` (stereo not given), for which the T/C was 100 % of control under setting [5], 102 % of control under setting [6] and 100 % of control under setting [7].

For `COc1ccc(C(=O)Cc2cc(OC)c(OC)cc2Br)cc1OC`, the T/C (dose: 100.0 mg/kg/injection, schedule: Q01DX001 (ip), vehicle: Klucel (hydroxypropylcellulose) (HPC)) was 93 % of control; the T/C (dose: 200.0 mg/kg/injection, schedule: Q01DX001 (ip), vehicle: Klucel (hydroxypropylcellulose) (HPC)) was 101 % of control; the T/C under setting [7] was 86 % of control; the T/C (dose: 400.0 mg/kg/injection, schedule: Q01DX001 (ip), vehicle: Klucel (hydroxypropylcellulose) (HPC)) was 99 % of control.

Turning to `COc1ccc2c(c1)OCCCO/N=C(\c1ccccc1)c1ccc(OC)cc1OCCCO/N=C/2c1ccccc1` (tested in a mixture with another compound), the T/C was 103 % of control under setting [5], 103 % of control under setting [6] and 98 % of control under setting [7].

Consider `COc1ccc(C2CCC[C@H](CCc3ccc(O)cc3)O2)cc1` (stereo not given in full), for which the T/C is 97 % of control under setting [5], 114 % of control under setting [6] and 109 % of control under setting [7].

In the case of `S=c1sc(-c2ccc(Cl)cc2)nn1CSc1nc2ccccc2[nH]1`, the T/C reads like this: under setting [8], 100 % of control; under setting [9], 98 % of control; under setting [10], 89 % of control.

As to `O=C(O)C1[N-]CCNC1C(=O)O.[O]=[V][OH]` (stereo not given), the T/C under setting [1] was 91 % of control.

`c1csc(C2N3CCN(CC3)C(c3cccs3)N3CCN2CC3)c1` (stereo not given): the T/C by setting is: under setting [8], 100 % of control; under setting [9], 104 % of control; under setting [10], 103 % of control.

For the molecule `O[C@H]1CCN2CO[C@@H](c3ccccc3)C[C@H]2C1`, the T/C reads like this: (dose: 12.5 mg/kg/injection, schedule: Q01DX005 (ip), vehicle: Klucel (hydroxypropylcellulose) (HPC)) 102 % of control; (dose: 25.0 mg/kg/injection, schedule: Q01DX005 (ip), vehicle: Klucel (hydroxypropylcellulose) (HPC)) 103 % of control; under setting [11], 102 % of control.

With `COC(=O)C[C@](O)(CCC(C)(C)O)C(=O)O[C@@H]1C(OC)=C[C@]23CCCN2CCc2cc4c(cc2[C@H]13)OCO4`, the T/C runs as follows: (dose: 0.5 mg/kg/injection, schedule: Q01DX009 (ip), vehicle: saline) 177 % of control; (dose: 1.0 mg/kg/injection, schedule: Q01DX009 (ip), vehicle: saline) 231 % of control.

With `CC1(Br)CN([C@@H](C(=O)O)c2ccccc2)C1=O` (stereo not given in full), the T/C was 102 % of control (dose: 50.0 mg/kg/injection, schedule: Q04DX002 (ip), vehicle: saline with Tween-80); 96 % of control under setting [2]; 93 % of control under setting [3]; 102 % of control under setting [4].

On to `Cn1c2ccccc2c(=O)c2ccc(Cl)cc21`, for which the T/C under setting [12] was 117 % of control; the T/C under setting [13] is 111 % of control; the T/C under setting [14] is 114 % of control; the T/C under setting [15] was 88 % of control; the T/C (dose: 400.0 mg/kg/injection, schedule: Q01DX009 (ip), vehicle: Klucel (hydroxypropylcellulose) (HPC)) is 104 % of control.

Regarding `CCOC(=O)/C(C#N)=C(\O)CCCC(=O)O`, the T/C is, setting by setting: under setting [13], 88 % of control; under setting [14], 91 % of control; under setting [15], 90 % of control.

For `CCN1CCC(=C(c2ccccc2)c2ccccc2)C1`, the T/C runs as follows: (dose: 6.25 mg/kg/injection, schedule: Q01DX009 (ip), vehicle: Klucel (hydroxypropylcellulose) (HPC)) 102 % of control; (dose: 12.5 mg/kg/injection, schedule: Q01DX009 (ip), vehicle: Klucel (hydroxypropylcellulose) (HPC)) 102 % of control; under setting [12], 100 % of control; under setting [13], 110 % of control; under setting [14], 108 % of control.

For the molecule `COc1ccc2c3c1OC1CC(N4CCCC4)=C(c4c([N+](=O)[O-])cc([N+](=O)[O-])cc4[N+](=O)[O-])C4(O)C(C2)N(C)CCC314` (stereo not given), the T/C was 94 % of control (dose: 60.0 mg/kg/injection, schedule: Q01DX005 (ip), vehicle: Klucel (hydroxypropylcellulose) (HPC)); 94 % of control (dose: 120.0 mg/kg/injection, schedule: Q01DX005 (ip), vehicle: Klucel (hydroxypropylcellulose) (HPC)); 90 % of control (dose: 240.0 mg/kg/injection, schedule: Q01DX005 (ip), vehicle: Klucel (hydroxypropylcellulose) (HPC)).

`O=C1C(O)=C(c2ccccc2)C(=O)C(O)=C1c1ccccc1`: the T/C by setting is: (dose: 12.5 mg/kg/injection, schedule: Q01DX009 (ip), vehicle: saline) 101 % of control and 124 % of control; under setting [1], 157 % of control and 164 % of control.

As to `O=c1c(N=Nc2nc3ccccc3s2)c(O)n(-c2ccccc2)c(=S)n1-c1ccccc1`, the T/C reads like this: (dose: 60.0 mg/kg/injection, schedule: Q01DX005 (ip), vehicle: saline) 109 % of control; (dose: 120.0 mg/kg/injection, schedule: Q01DX005 (ip), vehicle: saline) 100 % of control; (dose: 240.0 mg/kg/injection, schedule: Q01DX005 (ip), vehicle: saline) 106 % of control.

With `O=c1[nH]c(=O)n(C2CC(O)C(CS)O2)cc1F` (stereo not given), the T/C is, setting by setting: under setting [11], 115 % of control; under setting [16], 150 % of control and 159 % of control; (dose: 400.0 mg/kg/injection, schedule: Q01DX005 (ip), vehicle: Klucel (hydroxypropylcellulose) (HPC)) 186 % of control.

Consider `C=CCc1cc(Nc2c3ccc(Cl)cc3nc3ccc(OC)cc23)cc(CN(CC)CC)c1O`, for which the T/C was 106 % of control and 110 % of control (dose: 3.12 mg/kg/injection, schedule: Q01DX005 (ip), vehicle: Klucel (hydroxypropylcellulose) (HPC)); 118 % of control (dose: 6.0 mg/kg/injection, schedule: Q01DX005 (ip), vehicle: Klucel (hydroxypropylcellulose) (HPC)); 109 % of control and 110 % of control (dose: 6.25 mg/kg/injection, schedule: Q01DX005 (ip), vehicle: Klucel (hydroxypropylcellulose) (HPC)); 123 % of control (dose: 12.0 mg/kg/injection, schedule: Q01DX005 (ip), vehicle: Klucel (hydroxypropylcellulose) (HPC)).

As to `C(CCC[Si]12OCCN(CCO1)CCO2)CC[Si]12OCCN(CCO1)CCO2`, the T/C is, setting by setting: under setting [11], 102 % of control; (dose: 100.0 mg/kg/injection, schedule: Q01DX005 (ip), vehicle: Klucel (hydroxypropylcellulose) (HPC)) 93 % of control; under setting [16], 91 % of control.

As for `COc1ccc(OC)c(/C=C(/C)[N+](=O)[O-])c1`, the T/C is 119 % of control (dose: 44.0 mg/kg/injection, schedule: Q04DX003 (ip), vehicle: saline with Tween-80); 117 % of control (dose: 66.0 mg/kg/injection, schedule: Q04DX003 (ip), vehicle: saline with Tween-80); 123 % of control (dose: 100.0 mg/kg/injection, schedule: Q04DX003 (ip), vehicle: saline with Tween-80); 124 % of control (dose: 150.0 mg/kg/injection, schedule: Q04DX003 (ip), vehicle: saline with Tween-80).
